Experimental data taken from publication PMC6271638, “Synthesis of New 1,2,3-Triazol-4-yl-quinazoline Nucleoside and Acyclonucleoside Analogues” (Molecules, 2014).
Where two headings read alike, the source gives them in different places.

Tests used:
[1] = tested on: HCV replicon (genotype 1b, CON1); experiment: Anti-HCV activity, 3-day cell culture assay in HCV-replicon-containing cell line AVA5; assay type: cell-based, hepatitis C virus; details: AVA5 cells (genotype 1b, CON1), 3-day assay, read-out: IC50, concentration of compound achieving 50% inhibition of the replicon system
Protocol: Antiviral activity was assessed in a 3-day cell culture assay using the HCV-replicon-containing cell line, AVA5 (genotype 1b, CON1) (provided to GUMC by Apath, Inc., Brooklyn, NY, USA) as previously described.

Huh 5.2 cells = experiment: Cytotoxicity (50% extinction of cells) in the anti-HCV replicon assay; assay type: cell-based; details: 3-day cell culture assay, read-out: CC50, concentration of compound required for 50% extinction of Huh 5.2 cells
[2] = as above; assay type: cell-based; details: human; Huh 5.2 cells; 3-day cell culture assay; read-out: CC50, concentration of compound required for 50% extinction of Huh 5.2 cells

| Compound | IC50 [1] [µM] | CC50 (Huh 5.2 cells) [µM] | IC50 ([1]; Hepatitis C virus, 72 h) [µM] | CC50 at 3 day [2] [µM] |
| --- | --- | --- | --- | --- |
| 3-((1-(β-D-Ribofuranos-1-yl)-1,2,3-triazol-4-yl)methyl)-2-methylquinazolin-4-one [Compound 7d] | > 10 | ≥ 100 |  |  |
| 3-((1-(β-D-Ribofuranos-1-yl)-1,2,3-triazol-4-yl)methyl)quinazolin-4-one [Compound 7g] | > 10 | ≥ 100 |  |  |
| 4-((1-(β-D-Ribofuranos-1-yl)-1,2,3-triazol-4-yl)methoxy)-2-phenylquinazoline [Compound 7a] | > 10 | ≥ 50 |  |  |
| C[C@@]1(O)[C@H](O)[C@@H](CO)O[C@H]1n1ccc(N)nc1=O [Compound 2CmeCyt, reference compound] | 1.5 | > 300 |  |  |
| OCCOCn1cc(COc2nc(-c3ccccc3)nc3ccccc23)nn1 [Compound 7b, 2-((4-((2-Phenylquinazolin-4-yloxy)methyl)-1,2,3-triazol-1-yl)methoxy)etanol] |  |  | > 10 | ≥ 100 |
| OCCCCn1cc(COc2nc(-c3ccccc3)nc3ccccc23)nn1 [Compound 7c, 4-(4-((2-Phenylquinazolin-4-yloxy)methyl)-1,2,3-triazol-1-yl)butan-1-ol] |  |  | > 10 | ≥ 50 |
| Cc1nc2ccccc2c(=O)n1Cc1cn(COCCO)nn1 [Compound 7e, 2-((4-((2-Methyl-4-oxoquinazolin-3-yl)methyl)-1,2,3-triazol-1-yl)methoxy)ethanol] |  |  | > 10 | ≥ 50 |
| Cc1nc2ccccc2c(=O)n1Cc1cn(CCCCO)nn1 [Compound 7f, 4-(4-((2-Methyl-4-oxoquinazolin-3-yl)methyl)-1,2,3-triazol-1-yl)butan-1-ol] |  |  | > 10 | ≥ 50 |
| O=c1c2ccccc2ncn1Cc1cn(COCCO)nn1 [Compound 7h, 2-((4-((4-Oxoquinazolin-3-yl)methyl)-1,2,3-triazol-1-yl)methoxy)ethanol] |  |  | > 10 | ≥ 50 |
| O=c1c2ccccc2ncn1Cc1cn(CCCCO)nn1 [Compound 7i, 4-(4-((4-Oxoquinazolin-3-yl)methyl)-1H-1,2,3-triazol-1-yl)butan-1-ol] |  |  | > 10 | ≥ 50 |
